Values joined by “and” are separate entries in the source; they are usually repeats but may differ in a detail not shown here. Equal values may be shown once. Where a name gives a salt, the structure may show the parent alone.
What was measured:
[1] = system: rats with trigeminal chronic constriction injury (CCI); assay: Whisker pad mechanical allodynia; format: in vivo, rat; conditions: for dose dependence of mechanical threshold at peak time: 2 h after treatment (gabapentin 1 h); for dose dependence of mechanical threshold at peak time / minimal dose required to restore mechanical threshold to baseline: i.p. or p.o.; for mechanical threshold 1 h after injection: ELB00824 3 mg/kg i.p. and/or gabapentin 0.3 mg/kg i.p., one-time dose; for peak time of mechanical threshold: i.p. or p.o. treatment; for effective dose decreasing neuropathic hypersensitivity: rodent trigeminal nerve injury models, pioglitazone i.p.; for attenuation of mechanical allodynia: doses as high as 1000 mg/kg
[2] = system: mice with TIC injury; assay: Zero maze anxiety test in mouse chronic TIC model; format: in vivo; conditions: six weeks, 2 h post treatment; for time spent in the closed area of the maze: ELB00824 10 mg/kg, carbamazepine 30 mg/kg
[3] = system: mice with TIC injury; assay: Light/dark place preference anxiety test in mouse chronic TIC model; format: in vivo; conditions: six weeks; for latency to enter into the lighted chamber: two hours after injection
[4] = target: hERG potassium channel (Homo sapiens, UniProt Q12809); assay: In vitro cardiovascular toxicity study; format: biochemical
hERG potassium channel, sequence (Q12809 whole entry): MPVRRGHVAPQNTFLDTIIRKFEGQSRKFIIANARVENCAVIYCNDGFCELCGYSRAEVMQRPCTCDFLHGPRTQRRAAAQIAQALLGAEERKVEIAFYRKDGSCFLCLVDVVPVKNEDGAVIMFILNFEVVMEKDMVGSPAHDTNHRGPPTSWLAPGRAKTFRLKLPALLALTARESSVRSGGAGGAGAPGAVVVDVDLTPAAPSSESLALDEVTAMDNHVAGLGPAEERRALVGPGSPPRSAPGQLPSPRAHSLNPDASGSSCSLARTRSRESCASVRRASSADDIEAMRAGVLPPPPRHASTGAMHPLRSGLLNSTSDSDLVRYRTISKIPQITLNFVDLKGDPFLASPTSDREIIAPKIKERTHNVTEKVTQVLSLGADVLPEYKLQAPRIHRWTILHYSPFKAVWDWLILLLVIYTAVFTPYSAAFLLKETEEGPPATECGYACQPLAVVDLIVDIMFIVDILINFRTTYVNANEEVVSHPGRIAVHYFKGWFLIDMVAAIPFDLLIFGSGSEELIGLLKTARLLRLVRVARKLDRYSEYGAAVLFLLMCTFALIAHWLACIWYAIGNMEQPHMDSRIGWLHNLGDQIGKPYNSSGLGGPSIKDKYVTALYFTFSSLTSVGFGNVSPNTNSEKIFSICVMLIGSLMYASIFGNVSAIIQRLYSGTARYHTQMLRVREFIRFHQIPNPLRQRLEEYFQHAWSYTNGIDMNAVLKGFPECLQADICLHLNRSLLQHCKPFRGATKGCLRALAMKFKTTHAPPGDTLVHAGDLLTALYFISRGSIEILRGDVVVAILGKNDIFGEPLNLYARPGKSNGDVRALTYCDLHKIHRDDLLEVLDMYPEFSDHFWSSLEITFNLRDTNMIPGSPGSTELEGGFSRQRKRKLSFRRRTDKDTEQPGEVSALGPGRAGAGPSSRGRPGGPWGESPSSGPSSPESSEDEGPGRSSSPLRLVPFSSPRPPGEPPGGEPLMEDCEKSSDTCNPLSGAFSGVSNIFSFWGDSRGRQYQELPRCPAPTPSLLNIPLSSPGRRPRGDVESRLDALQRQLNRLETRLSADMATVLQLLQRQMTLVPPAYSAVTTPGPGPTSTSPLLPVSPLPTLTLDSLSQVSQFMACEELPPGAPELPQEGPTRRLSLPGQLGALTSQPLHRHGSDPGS

[5] = system: rats; assay: Observation of neurobehavioral adverse effects after single treatment in rats; format: in vivo, rat
[6] = system: mouse bone marrow erythroblast; assay: Genotoxicity study, micronucleus test; format: in vivo; conditions: up to highest concentration 500 mg/kg, intraperitoneal
[7] = system: mice with TIC injury; assay: Whisker pad mechanical allodynia; format: in vivo, mouse; conditions: for allodynia compared to vehicle, ipsilateral side, week 6 / whisker pad mechanical threshold at 2 h post injection, week 3: ELB00824 10 mg/kg i.p., carbamazepine 30 mg/kg i.p.; for time of peak effect: week 3, one-time i.p. dose
[8] = system: Sprague-Dawley rats; assay: Preliminary 14-day repeat dose toxicity study in rats; format: in vivo, rat
[9] = Pharmacokinetic/toxicokinetic study and BBB permeability in rats; format: in vivo, rat
[10] = target: T1, human PPARɣ receptor (Homo sapiens, UniProt P37231); assay: PPARɣ transactivation luciferase reporter assay in HEK 293 T cells; format: cell-based
T1 sequence (P37231 1-505): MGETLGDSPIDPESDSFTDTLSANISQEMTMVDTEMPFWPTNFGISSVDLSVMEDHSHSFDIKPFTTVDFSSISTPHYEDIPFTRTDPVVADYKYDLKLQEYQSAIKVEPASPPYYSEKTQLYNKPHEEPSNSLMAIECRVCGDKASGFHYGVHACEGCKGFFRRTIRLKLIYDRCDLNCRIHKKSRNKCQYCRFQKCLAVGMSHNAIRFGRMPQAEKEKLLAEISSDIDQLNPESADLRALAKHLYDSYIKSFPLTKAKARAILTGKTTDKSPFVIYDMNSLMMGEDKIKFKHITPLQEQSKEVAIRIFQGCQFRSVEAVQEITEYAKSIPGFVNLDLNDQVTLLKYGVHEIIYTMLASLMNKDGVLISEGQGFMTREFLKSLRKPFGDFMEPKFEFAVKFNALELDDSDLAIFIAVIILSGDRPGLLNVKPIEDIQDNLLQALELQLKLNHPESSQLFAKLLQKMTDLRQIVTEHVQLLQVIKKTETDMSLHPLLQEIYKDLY

[11] = system: rat; conditions: i.p.; cited from earlier work
[12] = Sprague-Dawley, rat, plasma, po, 10 mg/kg
[13] = from AUC in μM·h, rat, 10 mg/kg i.p.
[14] = from AUC in μM·h, rat, 10 mg/kg i.p., 10 mg/kg
[15] = from AUC in μg·h/mL, rat, 10 mg/kg i.p.
[16] = from Cmax in μM, rat, 10 mg/kg i.p.
[17] = from Cmax in μM, rat, 10 mg/kg i.p., 10 mg/kg
[18] = from Cmax in μg/mL, rat, 10 mg/kg i.p.
[19] = male, Sprague-Dawley, rat, plasma, ip, 10 mg/kg
[20] = rat brain, 10 mg/kg i.p., 10 mg/kg

CCc1ccc(CC/C=C/c2ccc3c(c2)C(=O)CC3)cc1 [ELB00824, (E)-6–(4-(4-ethylphenyl)but-1-en-1-yl)-2,3-dihydro-1H-inden-1-one]
mechanical threshold at 1.5 h ([1]; 2.5 mg topical (7% cream, 50 mg/cm^2)): 8.9 ± 1.5 g | mechanical threshold at 1.5 h ([1]; 5 mg topical (7% cream, 100 mg/cm^2)): 19.7 ± 3.1 g | mechanical threshold at 3 h after treatment ([1]; 10 mg/kg i.p.): 3.5 ± 0.9 g | ipsilateral whisker pad mechanical threshold ([1]; 10 mg/kg i.p., 1 h, 5-14 days post-CCI): 11.4 ± 2.2 g | ipsilateral whisker pad mechanical threshold (peak) ([1]; 10 mg/kg i.p., 2 h, ELB00824 only): 14.9 ± 2.5 g | mechanical threshold at 3 h after treatment ([1]; 10 mg/kg p.o.): 2.8 ± 0.5 g | dose dependence of mechanical threshold at peak time [1]: dose-dependently increased the mechanical threshold | mechanical threshold 1 h after injection [1]: 2.5 ± 0.3 g | onset of symptom relief ([1]; higher dose topical): 0.5 h | minimal dose required to restore mechanical threshold to baseline [1]: 10 mg/kg | peak time of mechanical threshold [1]: 2 h | effective dose decreasing neuropathic hypersensitivity [1]: 10 mg/kg | onset of symptom relief ([1]; systematic treatment, either i.p. or p.o., 10 mg/kg): 1 h | mechanical threshold at 3 h after treatment ([1]; topical treatment): 8.9 ± 1.1 g | latency to move to the closed area [2]: 11.6 ± 3.9 s | time spent in the closed area of the maze [2]: 103 ± 21 s | occupancy time and number of times that rearing occurred ([3]; compared with carbamazepine): less robust anti-anxiety behaviors | latency to enter into the lighted chamber [3]: 10 ± 12 s | IC50 [4]: > 30 µM | observable neurobehavioral adverse effects ([5]; doses of up to 1000 mg/kg i.p. or p.o., one week observation): not discernable | chromosome damage in mouse bone marrow erythroblast [6]: did not induce a significant increase of chromosome damage | allodynia compared to vehicle, contralateral side, week 6 ([7]; 10 mg/kg i.p.): significantly improved allodynia | mechanical threshold relative to carbamazepine, week 3 ([7]; 2 h post injection): 4.3 fold | allodynia compared to vehicle, ipsilateral side, week 6 [7]: significantly improved allodynia | whisker pad mechanical threshold at 2 h post injection, week 3 [7]: 6 ± 0.0 g | time of peak effect [7]: 2 h | hematological, blood coagulation and serum biochemistry parameters (55 parameters) compared with controls ([8]; day 15, male and female): No significant changes | hemoglobin and hematocrit values vs control ([8]; male 450 mg/kg group, day 15): slightly lower hemoglobin and hematocrit values | Tmax ([9]; Sprague-Dawley, rat, brain, po, 10 mg/kg): 3 h | AUC(0-t) [9, 12]: 3030 ng·h/mL | Cmax [9, 12]: 350 ng/mL | Tmax [9, 12]: 1 h | Plasma AUC0–24h ratio ELB00824/Pioglitazone [9, 13]: 0.3 | Plasma AUC0–24h ratio ELB00824/Rosiglitazone [9, 13]: 0.4 | Brain AUC0–24h ratio ELB00824/Pioglitazone [9, 14]: 15 | Brain AUC0–24h ratio ELB00824/Rosiglitazone [9, 14]: 21 | Brain AUC0–24h ratio ELB00824/Pioglitazone [9, 15]: 11 | Brain AUC0–24h ratio ELB00824/Rosiglitazone [9, 15]: 17 | Plasma AUC0–24h ratio ELB00824/Pioglitazone [9, 15]: 0.2 | Plasma AUC0–24h ratio ELB00824/Rosiglitazone [9, 15]: 0.3 | Plasma Cmax ratio ELB00824/Pioglitazone [9, 16]: 0.2 | Plasma Cmax ratio ELB00824/Rosiglitazone [9, 16]: 0.3 | Brain Cmax ratio ELB00824/Pioglitazone [9, 17]: 5.4 | Brain Cmax ratio ELB00824/Rosiglitazone [9, 17]: 6.7 | Brain Cmax ratio ELB00824/Pioglitazone [9, 18]: 4.0 | Brain Cmax ratio ELB00824/Rosiglitazone [9, 18]: 5.5 | Plasma Cmax ratio ELB00824/Pioglitazone [9, 18]: 0.1 | Plasma Cmax ratio ELB00824/Rosiglitazone [9, 18]: 0.2 | concentration at 1 h ([9]; male, Sprague-Dawley, rat, brain, po, 10 mg/kg): 1160 ng/mL and 4.01 µM | concentration at 1 h ([9]; male, Sprague-Dawley, rat, brain, po, 30 mg/kg): 4110 ng/mL and 14.2 µM | concentration at 1 h ([9]; male, Sprague-Dawley, rat, brain, po, 120 mg/kg): 7570 ng/mL and 26.1 µM | concentration at 1 h ([9]; male, Sprague-Dawley, rat, brain, po, 450 mg/kg): 11000 ng/mL and 38 µM | Kp ([9]; male, Sprague-Dawley, rat, brain/plasma, ip, 10 mg/kg): 5.13 | AUC(0-t) [9, 19]: 6550 ng·h/mL and 22.6 µM·h | Cmax [9, 19]: 1120 ng/mL and 3.85 µM | Tmax [9, 19]: 0.5 h | concentration at 1 h ([9]; male, Sprague-Dawley, rat, plasma, po, 10 mg/kg): 270 ng/mL and 940 nM | concentration at 1 h ([9]; male, Sprague-Dawley, rat, plasma, po, 30 mg/kg): 820 ng/mL and 2.81 µM | concentration at 1 h ([9]; male, Sprague-Dawley, rat, plasma, po, 120 mg/kg): 1510 ng/mL and 5.2 µM | concentration at 1 h ([9]; male, Sprague-Dawley, rat, plasma, po, 450 mg/kg): 2200 ng/mL and 7.57 µM | Brain AUC0–24h ([9]; rat brain, 10 mg/kg p.o.): 10370 ng·h/mL | Brain Cmax ([9]; rat brain, 10 mg/kg p.o.): 1.82 µg/mL | plasma Cmax and AUC0–24h relative to those of pioglitazone or rosiglitazone ([9]; rat plasma, 10 mg/kg i.p.): less than 0.3 fold | relative brain bioavailability (AUC0–24h) of oral versus i.p. injection ([9]; rat, 10 mg/kg): 31% | relative plasma bioavailability (AUC0–24h) of oral versus i.p. injection ([9]; rat, 10 mg/kg): 46% | maximal activities (% control), PPARɣ activation [10]: 45 ± 4%

O=C(Nc1ccccc1)c1cc([N+](=O)[O-])ccc1Cl [GW9662, reference compound]
change of mechanical threshold ([1]; 10–30 mg/kg i.p. alone, 1 to 4 h after injection): did not change mechanical threshold

CCc1ccc(CCOc2ccc(CC3SC(=O)NC3=O)cc2)nc1 (stereo not shown) [Pioglitazone, pioglitazone hydrochloride, reference compound]
dose dependence of mechanical threshold at peak time [1]: dose-dependently increased the mechanical threshold | minimal dose required to restore mechanical threshold to baseline [1]: 1000 mg/kg | peak time of mechanical threshold [1]: 2 h | effective dose decreasing neuropathic hypersensitivity [1]: 1000 mg/kg | rat LD50 [11]: 558 to 587 mg/kg | toxic signs and symptoms ([5]; 300 mg/kg i.p. or p.o., most rats, beginning one day after treatment): showed toxic signs and symptoms | Tmax ([9]; male, Sprague-Dawley, rat, brain, ip, 10 mg/kg): 1 h | AUC(0-t) [9, 19]: 34500 ng·h/mL and 87.7 µM·h | Cmax [9, 19]: 9770 ng/mL and 24.9 µM | Brain Cmax [9, 20]: 0.68 ± 0.14 μg/mL and 1.73 ± 0.22 μM

CN(CCOc1ccc(CC2SC(=O)NC2=O)cc1)c1ccccn1 (stereo not shown) [Rosiglitazone, rosiglitazone, reference compound]
attenuation of mechanical allodynia [1]: did not attenuate mechanical allodynia | AUC(0-t) [9, 19]: 22800 ng·h/mL and 63.7 µM·h | Cmax [9, 19]: 4500 ng/mL and 12.6 µM | Brain Cmax [9, 20]: 0.50 ± 0.06 μg/mL and 1.41 ± 0.27 μM

CC(=O)Nc1ccc(O)cc1 [acetaminophen, reference compound]
attenuation of mechanical allodynia [1]: neither acetaminophen nor ibuprofen attenuated mechanical allodynia

NC(=O)N1c2ccccc2C=Cc2ccccc21 [carbamazepine, reference compound]
latency to move to the closed area [2]: significantly increased latency | zone transitions ([2]; vs vehicle): significantly more | time spent in the closed area of the maze [2]: did not show significant differences | latency to enter into the lighted chamber [3]: decreased latency | allodynia compared to vehicle, ipsilateral side, week 6 [7]: significantly improved allodynia | whisker pad mechanical threshold at 2 h post injection, week 3 [7]: 1.4 ± 0.2 g | time of peak effect [7]: 2 h

NCC1(CC(=O)O)CCCCC1 [gabapentin, reference compound]
time at which threshold was reduced to previous allodynic levels ([1]; 1 mg/kg single i.p. injection): 2 h | dose dependence of mechanical threshold at peak time [1]: dose-dependently increased the mechanical threshold | mechanical threshold 1 h after injection [1]: 4.9 ± 1.2 g | peak time of mechanical threshold [1]: 1 h

CC(C)Cc1ccc(C(C)C(=O)O)cc1 (stereo not shown) [ibuprofen, reference compound]
attenuation of mechanical allodynia [1]: neither acetaminophen nor ibuprofen attenuated mechanical allodynia
